# According to publication PMC8049054, “Systematic Assessment of Fragment Identification for Multitarget Drug Design” (Chemmedchem, 2021):
# Molecular target: T1, leukotriene A4 hydrolase (LTA4H) (Homo sapiens, UniProt P09960)
# T1 construct: made in house; host or cells: E. coli BL21 (DE3)
# T1 sequence (P09960 1-611): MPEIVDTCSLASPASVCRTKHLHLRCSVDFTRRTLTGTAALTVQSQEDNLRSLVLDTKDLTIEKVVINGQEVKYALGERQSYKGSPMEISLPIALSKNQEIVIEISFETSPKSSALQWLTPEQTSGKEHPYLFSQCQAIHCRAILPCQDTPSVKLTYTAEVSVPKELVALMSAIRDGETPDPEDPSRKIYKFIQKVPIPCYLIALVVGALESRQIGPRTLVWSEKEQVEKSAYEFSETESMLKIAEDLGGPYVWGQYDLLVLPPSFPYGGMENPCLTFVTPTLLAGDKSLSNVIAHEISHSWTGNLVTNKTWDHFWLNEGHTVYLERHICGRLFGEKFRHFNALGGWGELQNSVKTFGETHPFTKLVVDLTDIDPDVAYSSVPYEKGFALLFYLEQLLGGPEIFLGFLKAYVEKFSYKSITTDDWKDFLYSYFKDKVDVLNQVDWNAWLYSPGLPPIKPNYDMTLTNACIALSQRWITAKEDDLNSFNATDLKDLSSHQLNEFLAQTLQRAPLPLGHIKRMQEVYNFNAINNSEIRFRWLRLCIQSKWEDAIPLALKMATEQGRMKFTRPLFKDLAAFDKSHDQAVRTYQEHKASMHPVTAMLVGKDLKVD
# Assay: Differential scanning fluorimetry (DSF) screen on LTA4H
# Assay type: binding
# Conditions: 500 μM fragment, mean of duplicates
# Excerpt: For the primary screen of this fragment library, we employed differential scanning fluorimetry (DSF, also known as thermal shift). DSF is generally applicable to a large panel of protein targets and provides a robust, low‐cost screening technology for fragment‐based approaches. ^[20] All five proteins of our interest are soluble and were recombinantly expressed in Escherichia coli. We performed an initial fragment screen on all five targets by DSF. The use of a uniform screening method for all targets ensured consistent data and provided the opportunity to identify false positive hits which interfered with the screening technology. The conditions of the DSF assay were optimized for the desired screening and validated with reference compounds (Table S1 in the Supporting Information). Compounds causing a positive thermal shift ΔT m≥1.0 °C were considered as active.
# DSF measurement of the PDFL (single concentration of 500 μM, duplicates, 96‐well format) on the five proteins retrieved 19 fragment hits on sEH, 28 on LTA4H, 12 on 5‐LOX, 16 on RXRα, and 14 on FXR, respectively. Melting point distributions of the screening library for all five targets are depicted in Figure 2. Amongst the hits, three compounds (Table S2) gave a positive signal on all five proteins likely qualifying them as pan assay interference compounds (PAINS). ^[21] Fragments binding to multiple targets (Scheme 1) were identified for seven out of ten target combinations (Figure 2, Table 1). Among them, fragments 4, 6, 7, and 9 match previously identified privileged scaffolds for fatty acid mimetics. ^[14] […] Active ligands containing N‐phenylbenzamide 6 and the N‐phenylbenzylamine 7 have been described for four of the protein targets. Furthermore, indole, which has been characterized as a privileged heterocycle for fatty acid mimetics, ^[14] is present in fragments 5 and 10. Dual 5‐LOX/RXR ligand 1 was present in 5‐LOX inhibitors, while dual FXR/LTA4H modulator 3 is found among known FXR ligands. Fragments 2 (sEH/5‐LOX) and 8 (LTA4H/RXR) are novel scaffolds not appearing in known ligands of any of the five targets.
# Figure S3: SDS page of the purified proteins (proteins RXRα and FXR after TEV cleavage) using a 14% polyacrylamide gel, which was stained with coomassi. Precision Plus Protein™ Unstained Protein Standard s (Bio-Rad Laboratories, Inc. ) was used […]
# All experiments were performed as duplicates using MicroAmp fast 96 -well plates. Each plate contained 80 different compound wells and 16 DMSO control wells. First 0.8 µl of a 25 mM Preswick Library Fragment dilution in DMSO or pure DMSO were placed in each of the well (final concentration 500 µM). Then 39.2 µl of the master mi x (containing protein, Triton x -100, SYPRO® Orange Protein Gel Stain and buffer that corresponds to the tested protein) were added.
# Table S4: Final concentrations in DSF experiments: […]
# The measurements were performed using a iCycler iQ™ Single -Color Real Time PCR device with a heat rate of 1 °C per min, an excitation wavelength of 490 nm and an emission wavelength of 570 nm. The first derivation calculated by MyiQ Op tical Software 1.0 was analyzed using Microsoft Office Excel 2013 by comparing the maxima. A shift of 1 °C (in case of 5 -LOX 0.9°C) or more compared to the DMSO control were assumed as potentially binding of the fragment.
# (1 picture or pasted object on this page, not shown here)
row,DSF/ΔT m LTA4H [°C],Structure (SMILES)
1,1.7±0.0,Oc1ccc2cc[nH]c2c1 [Compound 5]
2,0.5±0.0,CCN(Cc1ccccc1)c1ccccc1 [Compound 7]
3,1.5±0.0,Clc1ccc2c(c1)Nc1ccccc1CC2 [Compound 8]
4,0.7±0.0,Oc1ccc(-c2ccc(F)cc2F)cc1 [Compound 9]
5,2.4±0.0,Fc1ccc(-c2c[nH]c3ccccc23)cc1 [Compound 10]

# Continued, compound first:
row,Structure (SMILES),DSF/ΔT m LTA4H [°C]
1,c1ccc(N2CCNCC2)nc1 [Compound 1],−0.5±0.0
2,Cc1cc(=O)n(-c2ccc(C)c(C)c2)[nH]1 [Compound 2],−0.1±2.1
3,CCCCOc1cc(C(=O)OC)ccc1N [Compound 3],2.5±0.0
4,Oc1ccc(Cc2ccccc2)cc1 [Compound 4],1.5±0.0
5,Cc1ccccc1C(=O)Nc1ccccc1 [Compound 6],1.4±1.4
